Values after ≈ are worked out from the molar mass of the structure shown. A value given as a limit tells only on which side of the number the result lay.

For the series the following is noted: buffer; pH 7.4; 200.0 µM.
Consider `O=S1(=O)CCN(CCc2c[nH]c3ccccc23)CC1`, for which the solubility (kinetic) worked out at 38.2 µg/mL (≈ 137 µM).
In the case of `CC1CN(C(=S)Nc2ccc(Br)cc2)CC(C)O1` (stereo not given) it was 48.5 µg/mL (≈ 147 µM).
In the case of `CN(Cc1nc(Cc2cccc(F)c2)no1)CC1CCOCC1` it was 41.1 µg/mL (≈ 129 µM).
In the case of `Cc1ccc(CN2C(=O)C(=O)N(CC(N)=O)C2=O)cc1` it was over 41.3 µg/mL; in that of `S=C(NCc1ccccc1)Nc1ccncc1`, 30 µg/mL (≈ 123 µM).
As for `COc1ccccc1CNC(=O)C12CC3CC(CC(C3)C1)C2`, the kinetic solubility was 2.3 µg/mL (≈ 7.68 µM).
Compound `CCOc1ccc(NC(=O)COC(=O)Cn2cnc3ccccc32)cc1` displayed a solubility (kinetic) of 19.9 µg/mL (≈ 56.3 µM).
`CC(C)NCC(=O)C12CC3CC(CC(C3)C1)C2` showed a kinetic solubility of 28.7 µg/mL (≈ 122 µM).
In the case of `COc1ccc(C(=O)COC(=O)[C@@H](NS(=O)(=O)c2ccccc2)C(C)C)cc1` it was 7.8 µg/mL (≈ 19.2 µM).
As for `CN1CCC(OC(c2ccccc2)c2ccccc2)CC1.Cl`, the figure is over 47.7 µg/mL; as for `CCOc1ncccc1C(=O)Nc1ccc2c(c1)OCO2`, 2.7 µg/mL (≈ 9.43 µM).
In the case of `COc1ccc(S(=O)(=O)NC2CC(C)(C)NC(C)(C)C2)cc1` it was over 49 µg/mL; in that of `COC(=O)Nc1ccc(S(=O)(=O)N2CCCc3cccc(O)c32)cc1`, 2.1 µg/mL (≈ 5.79 µM); in that of `COc1cccc2c1O/C(=N\O)C(C(=O)Nc1cccc(C)c1C)C2` (stereo not given), over 51.1 µg/mL.
Regarding `O=C(NC1C/C(=N/O)c2cc3c(cc21)OCO3)C(F)(F)F` (stereo not given), the solubility (kinetic) is 32.3 µg/mL (≈ 107 µM).
As for `COC(=O)c1cc(C(=O)CC(C)C)c[nH]1`, the figure is over 31.4 µg/mL; as for `Cc1ccc(C(=O)NC2CCCc3ccccc32)cc1[N+](=O)[O-]` (stereo not given), 9.3 µg/mL (≈ 30 µM).
On to `CN1CCN(c2c([N+](=O)[O-])cnc3ccccc23)CC1.Cl`, for which the solubility (kinetic) was over 46.3 µg/mL.
As for `Cc1cc2ccccn2c1C(=O)c1cccc([N+](=O)[O-])c1`, the figure is 0.3 µg/mL (≈ 1.07 µM); as for `CCC(C)c1ccc(NC(=S)NC(C)C2CCCO2)cc1` (stereo not given), 31.2 µg/mL (≈ 102 µM).
In the case of `O=C(Cc1ccc([N+](=O)[O-])cc1)Nc1ccc(Br)cn1` it was 2.4 µg/mL (≈ 7.14 µM).
As for `O=C(CCCn1cnc([N+](=O)[O-])n1)Nc1cccc(O)c1`, the figure is over 43.7 µg/mL.
`O=C(CC1NCCNC1=O)NC1Cc2ccccc2C1` (stereo not given) registered a kinetic solubility of over 41 µg/mL.
In the case of `CCOc1ccc2[nH]c3c(NCCN(C)C)ncnc3c2c1` it was over 44.9 µg/mL; in that of `O=C(O)C1CC=C(Cl)CC1C(=O)NC1CCCCC1` (stereo not given), over 42.9 µg/mL; in that of `O=C(NC(=O)c1cnccc1C(F)(F)F)Nc1ccccc1`, 18.3 µg/mL (≈ 59.2 µM).
In the case of `CC(=O)ONC(=Nc1ccccc1)c1nonc1N` it was over 39.2 µg/mL; in that of `Clc1nc(Cl)nc(NCCC2=CCCCC2)n1`, over 41 µg/mL; in that of `O=C(Nc1ccc2ncccc2c1)c1ccccc1`, 30.7 µg/mL (≈ 124 µM).
As to `CCNc1cc(N2CCN(C)CC2)ccc1[N+](=O)[O-]`, the kinetic solubility is over 39.6 µg/mL.
As for `NC(=O)C1CCCN(Cc2ccc3ccccc3c2)C1` (stereo not given), the figure is 29.2 µg/mL (≈ 109 µM); as for `CCSCc1nc2ccccn2c1Br`, 34.6 µg/mL (≈ 128 µM).
As for `Cn1ncc(C(=O)Nc2ccc(Cl)cc2)c1C(F)(F)F`, the figure is over 45.6 µg/mL; as for `O=C(O)c1ccccc1Nc1ccc([N+](=O)[O-])cc1C(=O)O`, over 45.3 µg/mL.
Consider `Cc1cccc2c(=O)cc(C(F)(F)F)[nH]c12`, for which the kinetic solubility is over 34.1 µg/mL.
In the case of `c1ccc(-c2cccc(-c3ccccc3)n2)cc1` it was under 0.5 µg/mL.
In the case of `Cc1ccc(NC(=S)NC(=O)Cc2ccccc2)c(O)c1` it was 3.3 µg/mL (≈ 11 µM); in that of `Clc1ccc2c(N3CCOCC3)ccnc2c1`, over 37.3 µg/mL.
In the case of `COc1ccc(Cl)cc1NC(=O)C1(c2cccs2)CCOCC1` it was 21.7 µg/mL (≈ 61.7 µM); in that of `O=C(Nc1ccccc1C(=O)Nc1ccccn1)c1ccccc1F`, 2 µg/mL (≈ 5.96 µM); in that of `C#CC(CCN1CCCCC1)(OC)c1ccccc1.Cl` (stereo not given), 27.2 µg/mL.
The compound `CCS(=O)(=O)N1CCN=C1SCc1cccc(F)c1` yielded a solubility (kinetic) of over 45.4 µg/mL.
In the case of `COc1cc(C2NC(=O)NC3=C2C(=O)OC3)cc(OC)c1OC` (stereo not given) it was over 48 µg/mL.
In the case of `Cc1nn(CC(=O)NC2CCS(=O)(=O)C2)c(C)c1[N+](=O)[O-]` (stereo not given) it was over 47.4 µg/mL; in that of `CC(=O)N1c2ccc(Cl)cc2C2OCCC2C1c1ccco1` (stereo not given), 42.2 µg/mL (≈ 133 µM).
In the case of `CCCCn1c(=O)c(CCC(=O)O)nc2ccccc21` it was 31.8 µg/mL (≈ 116 µM).
`CC(C)C[C@H](N)c1nnc(SCc2ccc(Cl)cc2)o1.Cl`: the solubility (kinetic) is over 52.2 µg/mL.
As for `CCCc1cc(=S)n2c([nH]c3ccccc32)c1C#N`, the figure is 16.4 µg/mL (≈ 61.3 µM).
As for `Cc1ccc(C2(C)NC(=O)N(CC(=O)N3CCc4ccccc43)C2=O)cc1` (stereo not given), the figure is 3.6 µg/mL (≈ 9.91 µM); as for `O=C(CCCn1cnc([N+](=O)[O-])n1)Nc1cc(Cl)ccc1O`, over 48.9 µg/mL.
The compound `Cc1ccc(NS(=O)(=O)Cc2ccccc2)cc1Cl` had a kinetic solubility of 1.8 µg/mL (≈ 6.09 µM).
As for `Clc1ncc(CSc2ccccc2)s1`, the figure is 2.3 µg/mL (≈ 9.51 µM); as for `CS(=O)(=O)c1ccc(Cl)c(NC(=O)Nc2ccccc2)c1`, 5.1 µg/mL (≈ 15.7 µM).
In the case of `CCCCCCCOc1ccc(C(=O)Nc2cccnc2)cc1` it was under 0.3 µg/mL; in that of `Cc1cccc(C(=O)O/N=C(\N)c2ccccn2)c1`, over 38.3 µg/mL; in that of `CC(=O)N(CCC1(C(C)C)CCOC(C)(C)C1)C(C)c1cccs1` (stereo not given), 51.1 µg/mL (≈ 145 µM).
In the case of `O=C(NC12CC3CC(CC(C3)C1)C2)c1cc(F)c(F)cc1Cl` it was 0.7 µg/mL (≈ 2.15 µM).
In the case of `Cc1ccc(N2C(=NC(=O)c3ccccc3)SC3CS(=O)(=O)CC32)cc1` (stereo not given), the solubility (kinetic) is under 0.4 µg/mL.
As for `CCOC(=O)C(=O)c1c(-c2ccc(C)cc2)nc2ccccn12`, the figure is over 46.3 µg/mL; as for `CC1CC(CC(=O)NNc2nc(-c3ccccc3)cs2)C(=O)O1` (stereo not given), over 49.7 µg/mL; as for `Cc1cccc(NC(=O)c2cccc(N3C(=O)CCC3=O)c2)c1`, over 46.3 µg/mL.
As to `CC(C)Cn1c(-c2cccnc2)nc2c1c(=O)[nH]c(=O)n2CC(C)C`, the solubility (kinetic) was 45.7 µg/mL (≈ 134 µM).
In the case of `Cc1ccc2[nH]c(C(=O)N3CCOCC3)cc2c1` it was over 36.6 µg/mL; in that of `O=C(N/N=C\c1ccc(O)c([N+](=O)[O-])c1)C1COc2ccccc2O1` (stereo not given), over 51.5 µg/mL; in that of `O=C(Nc1ccc(-c2n[nH]c(=S)o2)cc1)c1ccccc1`, over 44.6 µg/mL.
As for `CCc1ccc(C(N)=S)cc1`, the figure is over 24.8 µg/mL; as for `COc1cc(OC)cc(C(=O)Nc2cccc3ccccc23)c1`, 1.9 µg/mL (≈ 6.18 µM).
As for `O=C(O)C1CC(O)CN1C(=S)Nc1ccccc1` (stereo not given), the solubility (kinetic) was over 39.9 µg/mL.
`N#Cc1ccc(OC(=O)c2cnccn2)cc1`: the solubility (kinetic) stood at 31.7 µg/mL (≈ 141 µM).
As for `CCC(=O)OCC(=O)Nc1cc(S(=O)(=O)N(C)C)ccc1Cl`, the figure is 46 µg/mL (≈ 132 µM); as for `Cc1ccc(C)c(Nc2nc(-c3cccnc3)cs2)c1`, 0.9 µg/mL (≈ 3.2 µM).
`COC(=O)c1ccccc1NC(=O)CSc1nc2ncccc2[nH]1` came in with a kinetic solubility of 8.7 µg/mL (≈ 25.4 µM). This solubility kinetic is about 9.7-fold higher than that of the compound before.
In the case of `O=C(O)c1csc(-c2cccs2)n1` it was over 31.7 µg/mL; in that of `O=C(O)CN1C(=O)C(=O)N(Cc2cccc(F)c2)C1=O`, over 42 µg/mL; in that of `CC1(C)CC(=O)C2=C(C1)NC(=O)NC2c1ccc(Cl)cc1` (stereo not given), 6.9 µg/mL (≈ 22.6 µM).
In the case of `CC(=O)Nc1cccc(-c2nc3ccccc3o2)c1` it was 6.3 µg/mL (≈ 25 µM).
In the case of `NS(=O)(=O)c1ccc(NC(=O)c2ccc3nccnc3c2)cc1` it was 7.5 µg/mL (≈ 22.8 µM).
As to `C#Cc1ccc(C(=O)NCc2ccc(N3CCCC3=O)cc2)cc1`, the solubility (kinetic) worked out at 14.6 µg/mL (≈ 45.9 µM).
As for `CCc1ccc(NC(=O)C2CCCN2C(=O)NC2CCCCC2)cc1` (stereo not given), the figure is 1.1 µg/mL (≈ 3.2 µM); as for `CCN1c2ccccc2N(C)C1(C)c1ccccc1` (stereo not given), 21.5 µg/mL (≈ 85.2 µM).
In the case of `O=C1NCC(O)=C1C=Nc1ccccc1O` it was over 32.7 µg/mL; in that of `C(=C\c1ccc2ccccc2n1)/c1ccccc1`, 0.5 µg/mL (≈ 2.16 µM).
`O=c1cc(C(F)(F)F)[nH]c(=S)n1-c1ccccc1`: the kinetic solubility was over 40.8 µg/mL.
As for `COc1ccc2c(c1)c(C)cc[n+]2Cc1ccccc1.[Cl-]`, the figure is 31.9 µg/mL.
As for `CC(OC(=O)c1cc2ccccc2[nH]1)C(=O)N(C)c1ccccc1` (stereo not given), the figure is 3.8 µg/mL (≈ 11.8 µM); as for `CCCc1[nH]n(-c2nc3ccccc3s2)c(=O)c1C=NCCCOC`, over 53.8 µg/mL.
Compound `Cc1cc(C(=O)COC(=O)C(C)NC(N)=O)c(C)n1Cc1ccco1` (stereo not given) displayed a kinetic solubility of 45.7 µg/mL (≈ 132 µM).
As for `O=C(c1ccccc1)C1CCN(C(=O)c2c(F)cccc2F)CC1`, the figure is over 49.4 µg/mL.
In the case of `COCC(=O)N1CCCC(C(=O)c2ccc(C(F)(F)F)cc2)C1` (stereo not given) it was over 49.4 µg/mL; in that of `COCCCNC(=O)c1ccc(NC(C)=O)cc1`, over 37.5 µg/mL.
As for `CCOC(=O)C1=C(C)OC(N)=C(C#N)C1c1cc(SCC)oc1C` (stereo not given), the figure is 23.9 µg/mL (≈ 68.6 µM); as for `O=C(Nc1ccccc1)Nc1cccc(-c2cn3cccnc3n2)c1`, 1 µg/mL (≈ 3.04 µM).
On to `Cc1cc(OC(C)C(=O)NCC2CCCO2)cc(C)c1Cl` (stereo not given), for which the solubility (kinetic) was determined as 40.7 µg/mL (≈ 131 µM).
As for `O=C(COc1ccc([N+](=O)[O-])cc1)N1CCc2ccccc2C1`, the figure is 37.5 µg/mL (≈ 120 µM); as for `CN(Cc1ccccc1)C(=O)CN1C(=O)NC2(CCCC2)C1=O`, over 47.3 µg/mL.
In the case of `O=C(C1Cc2ccccc2CN1S(=O)(=O)c1ccccc1[N+](=O)[O-])N1CCOCC1` (stereo not given) it was 63.7 µg/mL (≈ 148 µM).
In the case of `C/C(=N\O)C(C)(C)Nc1ccc(Br)cc1` it was over 40.7 µg/mL; in that of `COc1cccc(C(=O)NCCSCc2ccccc2Cl)c1`, 16 µg/mL (≈ 47.6 µM); in that of `Nc1nonc1OCCN1CCN(c2ccc([N+](=O)[O-])c3cccnc23)CC1`, 9.1 µg/mL (≈ 23.6 µM).
With `O=C(O)/C=C/c1ccc(-n2ccnc2)cc1`, the kinetic solubility is over 32.1 µg/mL.
As for `O=C(CCCCN1CCCCC1)c1ccccc1`, the figure is 31.8 µg/mL (≈ 130 µM).
In the case of `COc1ccc2[nH]c(C(=O)N(Cc3ccccn3)Cc3ccccn3)cc2c1` it was over 55.9 µg/mL; in that of `CC(C)N(Cc1ccccc1)S(=O)(=O)c1cccs1`, 13 µg/mL (≈ 44 µM).
In the case of `CCOc1ccccc1NC(=O)COC(=O)C1CC1` it was over 39.5 µg/mL; in that of `O=C(Nc1ccc2oc(=O)ccc2c1)c1ccc(-c2cccc([N+](=O)[O-])c2)o1`, 3.5 µg/mL (≈ 9.3 µM).
